Read-outs that look alike come from different tables or passages of the source.
Assays:
[1] = tested on: aPKC; conditions: cited from earlier work
[2] = target: T1, recombinant PKC-ζ (Homo sapiens, UniProt Q05513); conditions: cited from earlier work
T1 sequence (Q05513 1-592): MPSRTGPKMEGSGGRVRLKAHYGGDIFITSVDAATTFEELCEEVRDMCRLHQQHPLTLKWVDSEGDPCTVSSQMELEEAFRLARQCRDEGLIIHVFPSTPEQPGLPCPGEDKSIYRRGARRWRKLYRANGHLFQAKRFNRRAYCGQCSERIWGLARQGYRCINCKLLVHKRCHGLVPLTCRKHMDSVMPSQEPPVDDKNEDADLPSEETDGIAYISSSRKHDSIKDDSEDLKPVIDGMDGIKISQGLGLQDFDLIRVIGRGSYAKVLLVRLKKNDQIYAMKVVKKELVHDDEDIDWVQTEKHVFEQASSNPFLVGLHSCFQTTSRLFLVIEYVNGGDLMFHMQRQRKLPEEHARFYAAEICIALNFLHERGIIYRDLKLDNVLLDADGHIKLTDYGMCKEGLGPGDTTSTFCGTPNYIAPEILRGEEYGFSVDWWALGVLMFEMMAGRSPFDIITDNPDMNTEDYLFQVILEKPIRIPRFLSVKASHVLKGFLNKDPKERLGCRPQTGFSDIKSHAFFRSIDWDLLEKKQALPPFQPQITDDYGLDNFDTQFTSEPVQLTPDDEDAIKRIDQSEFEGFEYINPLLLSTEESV

[3] = tested on: aPKC, Akt2, AMP-activated kinase (AMPK), FoxO1; conditions: isolated human hepatocytes; cited from earlier work
[4] = tested on: PKC-λ/ι activity, BACE1 activity, Aβ1-40/42; conditions: LA1-5s neuronal cells, previously reported; cited from earlier work
[5] = tested on: Akt; test: Insulin-induced Akt activation in LA1-5s neuronal cells; assay type: cell-based, human; conditions: 200 nM insulin, 24 hours
Source text: (§1) Cell lysates were subjected to Western analyses for phosphorylated/activated forms of aPKC, NFκB and Akt. Representative blots of indicated proteins are shown in upper bands. […] Bargrams show Mean±SEM of 3-4 determinations. Asterisks indicate P<0.05; comparison of designated group versus the uninhibited, insulin-treated group (ANOVA).
(§2) LA1-5s neuronal cells were originally obtained from non-catecholamine-producing neuroblastoma of a person and are commercially available from the European Collection of Authenticated Cell Cultures. Incubation conditions were as described.
(§3) As described, western analyses were conducted with rabbit antisera, using: anti-aPKC [recognizes a C-terminal sequence in all aPKCs (Santa Cruz Biotechnologies, Santa Cruz, CA, USA)]; anti-phospho-threonine (thr)-560/555-PKC-ζ/λ/ι [recognizes a phosphopeptide sequence present in all aPKCs and indicates activation (Invitrogen, Carlsbad, CA, USA)]; anti-phospho-serine (ser)-473-Akt [recognizes a phosphopeptide sequence at 60 kDa present in all Akt's-1/2/3 and indicates activation (Cell Signaling Technologies, Danvers, MA, USA)]; anti-4 kDa-AP1-40/42 (Cell Signaling Technologies, Danvers, MA, USA); anti-mouse-70 kDa-BACE1 and anti-human-70 kDa-BACE1 (ThermoFisher); and anti-phospho-threonine (thr)-231-tau (Gene Tex, Irvine, CA, USA). […]

[6] = tested on: recombinant forms of PKC-α, PKC-β, PKC-δ, PKCε, or PKC-θ; conditions: cited from earlier work
[7] = tested on: BACE1; test: BACE1 levels in LA1-5s neuronal cells treated with insulin; assay type: cell-based, human
Protocol: Values of BACE1 are Mean±SEM of 4 values. Asterisks indicate P<0.05 for comparison of designated group versus the untreated control group (ANOVA).
as §2
As described, western analyses were conducted with rabbit antisera, using: anti-aPKC [recognizes a C-terminal sequence in all aPKCs (Santa Cruz Biotechnologies, Santa Cruz, CA, USA)]; anti-phospho-threonine (thr)-560/555-PKC-ζ/λ/ι [recognizes a phosphopeptide sequence present in all aPKCs and indicates activation (Invitrogen, Carlsbad, CA, USA)]; anti-phospho-serine (ser)-473-Akt [recognizes a phosphopeptide sequence at 60 kDa present in all Akt's-1/2/3 and indicates activation (Cell Signaling Technologies, Danvers, MA, USA)]; anti-4 kDa-AP1-40/42 (Cell Signaling Technologies, Danvers, MA, USA); anti-mouse-70 kDa-BACE1 and anti-human-70 kDa-BACE1 (ThermoFisher); and anti-phospho-threonine (thr)-231-tau (Gene Tex, Irvine, CA, USA). Samples from all experimental groups within each study were compared on the same blots and routinely checked with loading controls. All comparisons in histograms were made relative to the mean value of the basal control group, i.e., wild-type mice consuming standard low-fat mouse chow, untreated with insulin or aPKC inhibitors, and having normal levels of aPKCs and other cellular proteins.

[8] = target: T2, recombinant PKC-ι/λ (Homo sapiens, UniProt P41743); test: Inhibition of recombinant PKC-ι/λ; assay type: biochemical; conditions: Example 2
T2 sequence (P41743 1-596): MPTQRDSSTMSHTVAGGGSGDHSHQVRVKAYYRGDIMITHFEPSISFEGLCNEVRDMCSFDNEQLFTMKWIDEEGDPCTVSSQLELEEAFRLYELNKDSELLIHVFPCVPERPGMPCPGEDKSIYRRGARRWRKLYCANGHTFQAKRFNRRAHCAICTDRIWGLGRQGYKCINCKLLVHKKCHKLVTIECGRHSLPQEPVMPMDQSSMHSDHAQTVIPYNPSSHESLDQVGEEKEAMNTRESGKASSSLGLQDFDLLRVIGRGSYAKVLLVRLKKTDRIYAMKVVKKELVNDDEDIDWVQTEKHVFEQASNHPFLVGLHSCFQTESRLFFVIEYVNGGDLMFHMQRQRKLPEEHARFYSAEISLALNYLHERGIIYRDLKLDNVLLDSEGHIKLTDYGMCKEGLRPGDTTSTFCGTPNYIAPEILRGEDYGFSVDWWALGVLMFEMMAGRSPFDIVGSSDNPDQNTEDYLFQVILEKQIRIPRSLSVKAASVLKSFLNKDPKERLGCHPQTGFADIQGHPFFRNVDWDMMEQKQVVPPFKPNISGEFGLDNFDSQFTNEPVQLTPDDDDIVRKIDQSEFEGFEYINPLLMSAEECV
Protocol: 1H-imidazole-4-carboxamide,-5-amino-1-[2,3-dihydroxy-4-[(hydroxyl)methyl]cyclopentyl-[1R-(1a,2b,3b,4a)] […] (ICAPP).
aPKC Inhibitors. We identified by HTS compounds that target the substrate-binding site of aPKCs and potently (IC50s10-30 nM) inhibit recombinant PIP3-dependent aPKCs, but not DAG-dependent PKCs. Three compounds have been studied in detail: (a) 1H-imidazole-4-carboxamide, 5-amino-1-[2,3-dihydroxy-4-[(phosphono-oxy)methyl]cyclopentyl-[1R-(1a,2b,3b,4a)] […] Thus, these agents can reduce brain aPKC activity, indirectly at lower doses by inhibiting liver aPKC and correcting hyperinsulinemia in insulin-resistant states, and, at higher doses, by acting directly on brain PKC-λ/ι.

[9] = tested on: NFκB; test: Insulin-induced NFκB activity in LA1-5s neuronal cells; assay type: cell-based, human; conditions: 200 nM insulin, 24 hours; 1 μM ACPD, increasing concentrations of auranofin
Source text: as §1, §2, §3

[10] = target: T2, recombinant PKC-ι/λ; conditions: cited from earlier work
[11] = tested on: PKCι and PKCζ; conditions: cited from earlier work

SMILES | inhibition of brain aPKC ([1]; at higher doses) | aPKC inhibition in liver, muscle, adipose tissue ([1]; intact mice, employed doses) | IC50 [2] | FoxO1 phosphorylation/inactivation [3] | inhibition of aPKC, Akt2, AMPK [3] | insulin-induced increases in PKC-λ/ι activity, BACE1 activity and production of Aβ1-40/42 [4] | insulin-induced Akt activation [5] | effect on recombinant PKC-α, PKC-β, PKC-δ, PKCε, PKC-θ [6] | insulin-induced increase in BACE1 levels ([7]; 200 nM insulin, 24 hours, increasing concentrations of ICAPP) | basal/resting levels of BACE1 ([7]; at higher levels of inhibitor) | IC50 [8] | insulin-induced increase in NFκB activity [9] | IC50 [10] | insulin activation of aPKC (PB1 site) [11]
NC(=O)c1ncn([C@@H]2C[C@H](COP(=O)(O)O)[C@@H](O)[C@H]2O)c1N [ICAPP] | inhibit brain aPKC | inhibit aPKC in liver, but not in muscle or adipose tissue | 0.2 to 0.5 µM | increase FoxO1 phosphorylation/inactivation | inhibit aPKC but not Akt2 or AMP-activated kinase (AMPK) | blocked | not Akt activation | no effect | diminished | reduced basal/resting levels of BACE1 | 0.001 to 0.01 µM | diminished | 0.001 to 0.01 µM | –
O=C(O)CC([S-])C(=O)O.[Au+] (centres unmarked) [aurothiomalate] | – | – | – | – | – | – | – | – | – | – | – | – | – | inhibit insulin activation of aPKC
